What is called melting point is the temperature of the solid-liquid transition.

The results in this text go back to a melting point compilation (Tetko et al.; mined from patent text by program, amines drawn as free bases though some values may be those of a salt).

The structures appear in SMILES notation.

In the case of `CS(=O)(=O)c1ccc(-c2cnn(-c3ccc(Cl)cc3F)c(=O)c2-c2ccc(F)cc2)cc1`, the melting point lay within 250 to 260 °C.

With `O=C(NO)c1cc2c(Oc3ccc(Cl)cc3)cncc2s1`, the melting point came to 145 °C.

`COc1cc2c(cc1OC)CN(C(=O)C13CC4CC(CC(C4)C1)C3)CC2` registered a melting point of 151 to 155 °C.

The compound `CC(C)S(=O)(=O)Oc1cn(C)c2cc(F)ccc2c1=O` registered a melting point of 130 to 133 °C.

`CC1(C)SCCN(S(=O)(=O)c2ccc(-c3ccc(Br)cc3)cc2)C1C(=O)O` (stereo not given) displayed a melting point of 178 to 180 °C.

The compound `CCCn1c(CCOC)nc2c(N)nc3cc(Oc4ccc(S(C)(=O)=O)cc4)ccc3c21` gave a melting point of 210 to 212 °C.

Regarding `O=P(O)(O)C1(P(=O)(O)O)CCN2C=CC=CC2=N1`, the melting point came out at 80 °C.

For `CC(C)Sc1cccc(-c2nc(=O)c3ccccc3s2)n1`, the melting point is 185 to 186 °C.

`O=C(c1ccc(C(F)(F)F)cc1)c1ccc(O)cn1`: the melting point is greater than 260 °C.

Take `CC(=O)C(=O)NCc1nnc(C)n1-c1cc(Cl)cc(C(=O)c2ccccc2Cl)c1`: the melting point is 178 to 180 °C.

As to `COc1ccc([C@@H]2Cc3c(cccc3C(F)(F)F)N(CC3=NCCN3C(=O)OC(C)(C)C)C(=O)[C@@H]2O)cc1`, the melting point came out at 116 °C.

Consider `C#Cc1cccc(Oc2ccc3c(c2)C(=O)N(c2cccc(C#C)c2)C3=O)c1`, for which the melting point lay within 150 to 160 °C.

As for `O=C(O)C(=NOCc1ccccc1)c1csc2ccccc12`, the melting point is 120 to 121 °C.

`C#CCN1CCC(C(C)(C)C)CC1` displayed a melting point of 48 to 49 °C.

On to `C=CCCn1cc([N+](=O)[O-])nc1Br`, for which the melting point is 28 to 30 °C.

Turning to `CCCCc1nc2c(N)nc(C)c(C)c2n1CCOc1ccccc1`, the melting point was in the range of 130 to 132 °C.

`CCCCCCN1N=C(c2ccc(F)cc2)c2cc(F)ccc2CS1(=O)=O`: the melting point was in the range of 93 to 96 °C.

Compound `CCCOc1ccccc1-c1nc2cc(N)c(N)cc2c(=O)[nH]1` gave a melting point of 195 to 197 °C.

`Oc1ccc(Nc2nc(NCc3ccco3)nc(Nc3ccc(F)c(F)c3)n2)cc1` came in with a melting point of 75 to 77 °C.

On to `CCCn1nc(C(N)=O)cc1CC(C)C`, for which the melting point lay in the range of 141 to 142 °C.

As for `CCOC(=O)C(C)(C)OC(=O)c1cc([N+](=O)[O-])ccc1Cl`, the melting point was 64 to 66 °C.

With `CCN(CC)c1nc(-c2ccc3c(c2)OCO3)nc2sc(C#N)c(C)c12`, the melting point is 199 to 201 °C.

Compound `Nc1c2c(nc3ccc(Br)cc13)CCC2` showed a melting point of 236 to 238 °C.

`CCOC(=O)N1CCC(n2c(=O)[nH]c3cc(Cl)ccc32)CC1` gave a melting point of 160 °C.

In the case of `CC(=O)N1c2ccccc2Sc2cc(O)c3ccccc3c21`, the melting point came to 230 °C.

In turn, `CCOC(=O)c1cnc2c(C)csc2c1NCc1ccccc1` gave a melting point of 99 to 100 °C.

Compound `CCC(=O)Nc1ccc(C(=O)c2nc(-c3cccc(C(=O)O)c3)c3ccccn23)cc1OC` showed a melting point of 145 °C.

In the case of `CCOC(=O)c1cc2cc(C#N)ccc2s1`, the melting point lay within 138 to 139 °C.

With `COc1ccc(C(=O)NC2CCCCC2)c2c1OCC2CC(=O)O` (stereo not given), the melting point is 246 to 247 °C.

For `Cn1c(-c2ccc(-c3ccco3)cc2)cnc1[C@H](Cc1ccccn1)N(C=O)OC(C)(C)C`, the melting point fell in the range of 131 to 135 °C.

`COc1ccc(CNc2nc(N3CCC[C@H]3CO)ncc2C(=O)Nc2cncnc2)cc1Cl` showed a melting point of 192 to 195 °C.

With `COc1ccc2c(c1)C13CCCCC1(CC2)CCN3C` (stereo not given), the melting point is 100 to 102 °C.

For `O=C1C2CCCN2S(=O)(=O)N1CCl` (stereo not given), the melting point was 46.5 to 47.5 °C.

Regarding `CCCC(C)(Oc1ccc(CC(=O)Nc2cc(C)cc(C)c2)cc1)C(=O)O` (stereo not given), the melting point lay within 145 to 147 °C.

Take `CS(=O)(=O)Nc1cccc(Nc2nc(NCc3cccc(N)c3)c3nc[nH]c3n2)c1`: the melting point lay within 170 to 173 °C.

On to `CC(C)c1nc(C(C)C)c(CC=Cc2ccccc2)c(-c2ccc(F)cc2)c1CO`, for which the melting point was in the range of 72 to 73 °C.

Turning to `O=c1[nH]c2ncccc2c(=O)n1-c1ccccc1`, the melting point stood at 304 °C.

Compound `CC(=O)NC[C@H]1CN(c2ccc3c(c2)CC(C)N3C(=O)CO)C(=O)O1` (stereo not given in full) showed a melting point of 130 to 133 °C.

For the compound `O=P(O)(O)OC(Cn1cncn1)(Cn1cncn1)c1ccc(F)cc1F`, the melting point lay in the range of 223 to 224 °C.

The compound `COCCCc1ccc2oc(-c3cc4cccn4cn3)cc(=NO)c2c1` showed a melting point of 172 to 173 °C.

Take `CCOCc1nc2c(N)nc3ccccc3c2n1CCN1C(C)=NOC1(C)C`: the melting point lay within 204 to 205 °C.

Turning to `COC(=O)c1oc2cc(OCc3nc(-c4ccccc4)oc3C)ccc2c1-c1ccccc1`, the melting point fell in the range of 139 to 140 °C.

As to `CNc1ccc(Nc2nc(N3CCOCC3)nc(-n3c(C(F)F)nc4c(OC)cccc43)n2)cn1`, the melting point fell in the range of 218 to 221 °C.

For the compound `Cc1ccccc1C(=O)CN1C(=O)C(NC(=O)Nc2cccc(-c3nnn[nH]3)c2)N=C(C2CCCCC2)c2cccc(C)c21` (stereo not given), the melting point fell in the range of 165 to 177 °C.

`CCN(CC)C(=O)Oc1cc(-c2ccccc2)nc2ccc([N+](=O)[O-])cc12` returned a melting point of 40 °C.

Regarding `Cc1cccc(NC(=O)NC(CCC(=O)O)C(=O)N(CC(=O)OC(C)(C)C)c2ccccc2)c1` (racemic), the melting point is 191 °C.

For `CCOC(=O)c1cc2ccc3c(c2cc1OC)OC(n1cccc1)=C(C#N)C3c1cccc([N+](=O)[O-])c1` (stereo not given), the melting point lay in the range of 190 to 191 °C.

For `CC(C)(C)OC(=O)c1ncn2c1CN=C(c1ccccc1)c1cc(Br)ccc1-2`, the melting point was in the range of 222 to 223 °C.

`COc1cc(Nc2nc3ccnc(-c4ccc(S(N)(=O)=O)cc4)c3o2)cc(OC)c1OC`: the melting point was greater than 280 °C.

`COC(=O)c1cccc2nc(SCCCN3CCCN(CC(=O)Nc4c(C(C)C)cccc4C(C)C)CC3)oc12` yielded a melting point of 83 to 85 °C.

`COc1cc(C(=O)O)ccc1Cc1cn(C)c2ccc(CCNC(=O)N(C)C)cc12` gave a melting point of 195 to 196 °C.

On to `CCCCNC(=O)NS(=O)(=O)c1cc(Cl)ccc1C(=O)OC(C)C`, for which the melting point came out at 129 °C.

For the compound `Cc1ccc(N2C(=O)C(O)=C(C(=O)c3ccc(C(C)C)cc3)C2c2ccc(F)cc2)nn1` (stereo not given), the melting point was 273 to 278 °C.

Compound `CCCCc1c(C(=O)OCC)cc(OC(C)=O)c2c(OC)cccc12` yielded a melting point of 86 to 88 °C.

In turn, `O=C(O)c1cc2c(C(F)(F)F)c(F)ccc2[nH]1` yielded a melting point of 204 to 210 °C.

`CC(=O)OC1Oc2ccc(OS(C)(=O)=O)cc2C1(C)C` (stereo not given) gave a melting point of 84 to 85 °C.

As to `CC(Oc1cc(Cl)ccc1Cl)C(=O)OCc1ccccc1` (stereo not given), the melting point was in the range of 56 to 58 °C.

`CN(C)Cc1ccc(CSCCNC2=NS(=O)(=O)N=C2NO)o1`: the melting point was in the range of 203 to 205 °C.

`COC(=O)CCNc1ccccc1CNC(=O)C1Cc2ccccc2N1S(=O)(=O)c1ccc(I)cc1` (stereo not given) returned a melting point of 67 to 75 °C.

Consider `O=C(NCc1cccnc1)Nc1ccc(S)cc1`, for which the melting point lay in the range of 155 to 159 °C.

Turning to `CCN(CC)C(=O)Nc1cc(-c2c(-c3cccc(C)c3)nc3cccnn23)ccn1`, the melting point is 166 to 167 °C.

`CNC1=CC(=O)C(Nc2ncnc3cc(OC)c(OC)cc23)=CC1=O` returned a melting point of 283 to 285 °C.

For the compound `COc1ccc(-c2cncc(C#N)c2Nc2ccc3[nH]ccc3c2)cc1Br`, the melting point was in the range of 148 to 150 °C.

For `N#CC(Cc1ccccn1)(C(N)=O)c1ccc([N+](=O)[O-])cc1` (stereo not given), the melting point was 79 to 81 °C.

Compound `CCOC(=O)CCCOc1cccc2cc(/C(C)=C/C(=O)N3CCOCC3)oc12` showed a melting point of 90 to 94.8 °C.

`CC(C)(C)N1C(=O)c2cnc(-c3ccccc3)nc2Nc2ccccc21` registered a melting point of 221 to 222 °C.

`COC(=O)CCCCc1ccc(CN2CCN(c3ccncc3)CC2)cc1`: the melting point was in the range of 53 to 54 °C.

`NS(=O)(=O)c1ccc(CCN2CCN(c3ccncc3)CC2)cc1` displayed a melting point of 203 to 204 °C.

Regarding `Clc1ccc(-c2[nH]nc(N3CCNCC3)c2-c2ccncc2)cc1`, the melting point is 264 to 265 °C.

For the compound `Cc1ccc(Cc2cnc(NCCCCc3ncc(I)cc3C)[nH]c2=O)cn1`, the melting point fell in the range of 160 to 162 °C.

Take `COc1cc(C)c(S(=O)(=O)c2ccccc2C)cc1OC`: the melting point was in the range of 126 to 128 °C.

With `NC(=O)N1CCC[C@@H]1C#CCN1CCCC1`, the melting point was 117 to 122 °C.

`COCC(C)N(C)Cc1c(-c2ccc(NC(=O)NOC)cc2)sc2c1c(=O)n(-c1ccccc1)c(=O)n2Cc1c(F)cccc1F` (stereo not given): the melting point is 154 to 155 °C.

`COc1ccc(C(=O)OC2CC3C(=O)NC4(C(=O)NS(=O)(=O)C5CC5)CC4C=CCOCCCC(NC(=O)OC(C)(C)C)C(=O)N3C2)cc1` (stereo not given) gave a melting point of 145 to 147 °C.

`COc1ccc(-c2c(C(=O)Cl)sc3ccccc23)cc1OC` had a melting point of 113 °C.

As to `CCOC(=O)CNCc1cccc(-c2c(CC(=O)Nc3ccc(F)cc3C(F)(F)F)c(=O)oc3cc(Cl)c(C)cc23)c1`, the melting point is 153 to 155 °C.

Compound `Cn1ncc2nc3cccc(F)c3c(Cl)c21` registered a melting point of 269 °C.

Compound `CCOC(=O)c1cnc2c(cnn2-c2ccccc2)c1N(Cc1cccnc1)S(=O)(=O)c1ccc(OC)cc1` had a melting point of 89 to 91 °C.

For the compound `COc1ncc(-c2ccccc2)c(C(=O)N(C)Cc2cc(C(F)(F)F)cc(C(F)(F)F)c2)n1`, the melting point lay in the range of 97.5 to 98.5 °C.

The compound `Cc1nc2c(Cl)c(NC(=O)c3ccc(-c4ccccc4)cc3)ccc2s1` came in with a melting point of 168 to 169 °C.

With `CCOC(=O)Cn1c(=O)n(Cc2ccc(Cl)c(Cl)c2)c(=O)c2c(C)c(Cl)sc21`, the melting point lay in the range of 141 to 145 °C.

Regarding `CCn1ncnc1COc1nn2c(-c3ccc(F)cc3F)nncc2c1C(C)(C)C`, the melting point is 145 °C.

As for `Oc1ccc2c(-c3ccc4c(Br)c(O)ccc4c3)noc2c1`, the melting point was in the range of 275 to 277 °C.

`CCc1cn2ccc(NC(=O)c3cc4cc(C(F)(F)F)cnc4n3Cc3cccc(F)c3)cc2n1` returned a melting point of 264 to 265 °C.

For the compound `COc1cc(Nc2c(C#N)cnc3ccc(Br)cc23)c(Cl)cc1Cl`, the melting point lay within 232 to 234 °C.
